From ChEMBL document CHEMBL1201862, “PubChem BioAssay data set” (2004)
Active and inactive are the calls of the source.

Key:
[1] = target: T1, Heat shock factor protein 1 (Mus musculus, UniProt P38532); assay: decrease of HSF1-responsive luciferase luminescence – cell-based, NIH3T3, dose retest, confirmation (AID 2382); type: functional;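 further: NIH3T3 fibroblasts with HSF1-driven luciferase reporter stressed by proteasome inhibitor MG132; luminescence from HSF1-driven luciferase expression after 8 hours of MG132 stress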
T1 sequence (P38532 whole entry): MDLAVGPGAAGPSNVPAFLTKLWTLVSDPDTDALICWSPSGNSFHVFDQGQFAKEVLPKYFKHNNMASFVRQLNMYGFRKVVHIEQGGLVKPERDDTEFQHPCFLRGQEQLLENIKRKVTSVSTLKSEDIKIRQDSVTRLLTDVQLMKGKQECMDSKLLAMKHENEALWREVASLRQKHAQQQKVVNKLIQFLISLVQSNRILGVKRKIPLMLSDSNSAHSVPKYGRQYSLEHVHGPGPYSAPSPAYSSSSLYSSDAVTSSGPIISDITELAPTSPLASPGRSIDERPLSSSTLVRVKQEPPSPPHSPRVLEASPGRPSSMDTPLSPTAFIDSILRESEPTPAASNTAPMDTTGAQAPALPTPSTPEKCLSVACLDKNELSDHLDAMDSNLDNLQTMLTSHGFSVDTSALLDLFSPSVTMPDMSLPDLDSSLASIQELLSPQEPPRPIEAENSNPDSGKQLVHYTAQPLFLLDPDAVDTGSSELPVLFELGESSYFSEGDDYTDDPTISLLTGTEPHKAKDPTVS

[2] = target: Palmitoyl-protein thioesterase ABHD10, mitochondrial (Mus musculus, UniProt Q6PE15); assay: Late stage assay provider results from the probe development effort to identify inhibitors of PME-1: fluorescence-based dose response biochemical gel-based competitive Activity-Based Protein Profiling (ABPP) inhibition of ABHD10 Set 1.; type: functional
[3] = target: T2, Microphthalmia-associated transcription factor (Homo sapiens, UniProt O75030); assay: reducers of TRPM1 reporter luminescence, concentration series – cell-based, SK-MEL-5, cherry-picked, set 3, MITF inhibitor project, dose response (AID 493073); type: functional;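 further: SK-MEL-5 melanoma cells with luciferase driven by the MITF target TRPM1 promoter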
T2 sequence (O75030 whole entry): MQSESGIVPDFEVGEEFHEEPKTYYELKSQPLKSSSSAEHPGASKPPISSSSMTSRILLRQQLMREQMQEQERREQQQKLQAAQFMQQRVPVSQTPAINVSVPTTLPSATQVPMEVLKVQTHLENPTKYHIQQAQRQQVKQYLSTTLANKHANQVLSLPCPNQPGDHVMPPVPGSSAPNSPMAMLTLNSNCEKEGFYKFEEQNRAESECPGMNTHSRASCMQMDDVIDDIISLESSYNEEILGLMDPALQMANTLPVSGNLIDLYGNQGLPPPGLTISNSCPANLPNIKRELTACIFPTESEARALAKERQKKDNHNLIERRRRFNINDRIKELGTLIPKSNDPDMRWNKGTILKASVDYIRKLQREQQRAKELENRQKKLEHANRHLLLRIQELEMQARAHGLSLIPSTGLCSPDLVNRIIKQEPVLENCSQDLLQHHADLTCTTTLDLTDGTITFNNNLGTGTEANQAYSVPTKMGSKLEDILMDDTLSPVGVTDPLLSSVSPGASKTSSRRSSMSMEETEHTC

[4] = target: SWI/SNF-related matrix-associated actin-dependent regulator of chromatin subfamily A member 2 (Homo sapiens, UniProt P51531); assay: Luminescence-based cell-based high throughput dose response assay to identify activators of the function of SWI/SNF related, matrix associated, actin dependent regulator of chromatin, subfamily a, member 2 (SMARCA2, BRM).; type: functional
cells = type: functional, cell-based
[5] = Counterscreen for activators of the function of SWI/SNF related, matrix associated, actin dependent regulator of chromatin, subfamily a, member 2 (SMARCA2, BRM): Luminescence-based cell-based high throughput dose response assay to identify non-selective compounds using the VP16 reporter assay.; type: functional
[6] = target: T3, Long-chain-fatty-acid--AMP ligase FadD28 (Mycobacterium tuberculosis, UniProt P9WQ59); assay: Fluorescence polarization aasay to screen for inhibitors that compete for the binding of FadD28 to a bisubstrate Measured in Biochemical System Using Plate Reader - 2147-01_Inhibitor_Dose_CherryPick_Activity.; type: functional, Mycobacterium tuberculosis H37Rv
T3 sequence (P9WQ59 whole entry): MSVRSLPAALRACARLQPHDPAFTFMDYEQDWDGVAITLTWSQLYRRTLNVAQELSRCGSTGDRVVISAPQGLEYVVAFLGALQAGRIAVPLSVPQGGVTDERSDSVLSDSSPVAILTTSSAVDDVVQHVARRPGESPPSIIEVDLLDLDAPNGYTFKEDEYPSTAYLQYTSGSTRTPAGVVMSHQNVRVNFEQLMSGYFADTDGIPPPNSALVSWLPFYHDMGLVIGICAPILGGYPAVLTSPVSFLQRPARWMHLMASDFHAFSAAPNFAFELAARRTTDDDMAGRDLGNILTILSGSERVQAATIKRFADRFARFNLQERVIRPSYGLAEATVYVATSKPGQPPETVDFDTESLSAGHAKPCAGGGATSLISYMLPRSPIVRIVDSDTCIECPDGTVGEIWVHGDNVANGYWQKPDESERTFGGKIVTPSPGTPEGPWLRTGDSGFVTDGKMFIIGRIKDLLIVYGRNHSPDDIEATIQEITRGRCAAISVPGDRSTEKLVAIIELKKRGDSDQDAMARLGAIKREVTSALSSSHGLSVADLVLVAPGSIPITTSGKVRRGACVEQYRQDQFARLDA

HeLa = assay: ATP-based viability loss in HeLa cells – cell-based, CellTiter-Glo luminescence, cherry-pick samples, cytotoxicity control for MITF activator project, dose response (AID 540259); type: functional; details: Homo sapiens
[7] = target: T4, Nuclear receptor subfamily 0 group B member 1 (Homo sapiens, UniProt P51843); type: functional, cell-based;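 further: HEK293T cells transfected with SF-1 and DAX-1 plus StAR promoter luciferase reporter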
T4 sequence (P51843 whole entry): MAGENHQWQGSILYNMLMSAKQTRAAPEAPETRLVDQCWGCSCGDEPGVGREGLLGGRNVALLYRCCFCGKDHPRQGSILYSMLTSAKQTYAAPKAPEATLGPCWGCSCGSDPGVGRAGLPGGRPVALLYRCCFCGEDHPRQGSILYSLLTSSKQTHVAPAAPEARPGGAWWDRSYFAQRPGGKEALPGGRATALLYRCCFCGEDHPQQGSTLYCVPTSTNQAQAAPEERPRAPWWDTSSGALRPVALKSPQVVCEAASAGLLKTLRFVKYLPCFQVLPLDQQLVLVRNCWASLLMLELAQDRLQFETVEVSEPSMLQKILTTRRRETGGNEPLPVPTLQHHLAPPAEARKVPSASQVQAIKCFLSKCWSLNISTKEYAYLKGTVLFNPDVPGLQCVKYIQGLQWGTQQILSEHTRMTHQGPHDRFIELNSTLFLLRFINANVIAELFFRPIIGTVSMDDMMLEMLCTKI

[8] = target: T5, Methionyl-tRNA synthetase, putative (Trypanosoma brucei brucei, UniProt Q38C91); type: functional, Trypanosoma brucei brucei strain 927/4 GUTat10.1
[9] = Counterscreen for inhibitors of Trypanosoma brucei methionyl tRNA synthetase (MetRS): Luminescence-based cell-based high throughput dose response assay to identify compounds that are cytotoxic to Jurkat human T lymphocyte cells.; type: functional
[10] = target: T5, Methionyl-tRNA synthetase, putative; type: functional, Trypanosoma brucei brucei strain 927/4 GUTat10.1; remark: listed apart in the source
[11] = target: Induced myeloid leukemia cell differentiation protein Mcl-1 (Homo sapiens, UniProt Q07820); type: functional
Vero = assay: viability loss in Vero cells – cell-based, plate reader, cherry-pick samples, cytotoxicity control, dose response (AID 687020); type: functional; details: Chlorocebus sabaeus
[12] = target: T6, Botulinum neurotoxin type F (Clostridium botulinum, UniProt P30996); assay: High-throughput multiplex microsphere dose response for inhibitors of toxin protease, specifically Botulinum neurotoxin light chain F protease, compounds from Cherry Pick 02.; type: functional; details: read-out: EC50_MICROM
[13] = target: T6, Botulinum neurotoxin type F; assay: High-throughput multiplex microsphere dose response for inhibitors of toxin protease, specifically Botulinum neurotoxin light chain F protease, compounds from Cherry Pick 01.; type: functional; details: read-out: EC50_MICROM
Coagulation factor XII = target: T7, Coagulation factor XII (Homo sapiens, UniProt P00748); type: functional;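 further: activated factor XIIa alpha cleaving a fluorogenic AMC peptide substrate; inhibitor potency from loss of enzyme activity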
T7 sequence (P00748 whole entry): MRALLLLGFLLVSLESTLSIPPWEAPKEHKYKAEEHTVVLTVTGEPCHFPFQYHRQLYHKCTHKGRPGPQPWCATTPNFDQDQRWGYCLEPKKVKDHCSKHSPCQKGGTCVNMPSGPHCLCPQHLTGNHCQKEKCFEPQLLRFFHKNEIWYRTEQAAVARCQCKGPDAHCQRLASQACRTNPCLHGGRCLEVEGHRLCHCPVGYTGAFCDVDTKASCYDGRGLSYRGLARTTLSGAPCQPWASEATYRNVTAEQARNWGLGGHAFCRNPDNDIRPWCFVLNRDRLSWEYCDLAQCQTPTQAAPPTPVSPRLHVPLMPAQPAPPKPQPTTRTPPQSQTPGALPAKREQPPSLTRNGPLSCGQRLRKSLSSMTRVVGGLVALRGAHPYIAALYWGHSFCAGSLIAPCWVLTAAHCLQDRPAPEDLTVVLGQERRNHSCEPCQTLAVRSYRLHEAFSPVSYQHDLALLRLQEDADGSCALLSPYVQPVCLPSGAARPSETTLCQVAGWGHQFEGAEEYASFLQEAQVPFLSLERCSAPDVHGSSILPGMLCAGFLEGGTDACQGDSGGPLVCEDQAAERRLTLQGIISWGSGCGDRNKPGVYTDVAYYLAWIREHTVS

Caspase-3 = target: T8, Caspase-3 (Homo sapiens, UniProt P42574); assay: Dose-response confirmation of uHTS inhibitor hits of Sentrin-Specific Protease 8 in a Caspase-3 Fluorescence assay.; type: functional
T8 sequence (P42574 whole entry): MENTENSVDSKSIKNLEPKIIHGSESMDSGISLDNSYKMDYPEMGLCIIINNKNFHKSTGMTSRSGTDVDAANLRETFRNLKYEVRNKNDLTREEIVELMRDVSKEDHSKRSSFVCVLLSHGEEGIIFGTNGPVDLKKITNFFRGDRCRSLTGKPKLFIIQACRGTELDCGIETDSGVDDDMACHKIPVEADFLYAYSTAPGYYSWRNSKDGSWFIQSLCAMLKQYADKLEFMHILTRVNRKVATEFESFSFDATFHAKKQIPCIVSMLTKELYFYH

[14] = target: T9, Sentrin-specific protease 8 (Homo sapiens, UniProt Q96LD8); type: functional
T9 sequence (Q96LD8 whole entry): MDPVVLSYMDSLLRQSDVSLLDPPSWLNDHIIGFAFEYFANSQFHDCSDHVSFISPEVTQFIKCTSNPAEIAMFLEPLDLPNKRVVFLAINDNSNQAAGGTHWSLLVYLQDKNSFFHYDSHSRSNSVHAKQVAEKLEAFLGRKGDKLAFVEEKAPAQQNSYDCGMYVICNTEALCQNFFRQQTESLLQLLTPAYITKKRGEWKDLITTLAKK

[15] = target: T9, Sentrin-specific protease 8; type: functional; remark: listed apart in the source
[16] = target: T10, ATP-dependent translocase ABCB1 (Homo sapiens, UniProt P08183); assay: P-gp JC-1 efflux blockade concentration-response – Jurkat-DNR cells, flow cytometry, set 2, dose response (AID 504569); type: functional; details: read-out: EC50_MICROM_;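 further: potency of pump inhibitors that raise cellular JC-1 green fluorescence up to the nicardipine level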
[17] = target: T10, ATP-dependent translocase ABCB1; assay: inhibition of BCRP-mediated JC-1 efflux – Ig-MXP3 cells, flow cytometry, set 2, dose response (AID 504566); type: functional; details: read-out: EC50_MICROM_;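 further: flow cytometry median green fluorescence of retained JC-1 dye; potency of efflux pump inhibition measured as rising substrate retention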
Protein Wnt-3a = Protein Wnt-3a (Mus musculus, UniProt P27467); assay: SAR analysis of small molecule antagonists of Gli-SUFU in a Wnt3a luminescent reporter assay.; type: functional
[18] = inhibition of bursicon-driven LGR2 cAMP signaling – cell-based, HEK293, CRE-luciferase reporter, cherry pick, dose response (AID 743342); type: functional
[19] = A549 cell cytotoxicity, dose response, cytotoxicity control, plate reader, cherry-pick, antagonist series (AID 743412); type: functional, cell-based
[20] = T. cruzi growth inhibition in host cells, dose response, cell-based, plate reader, dry powder, set 2 (AID 652275); type: functional

T10 sequence (P08183 whole entry): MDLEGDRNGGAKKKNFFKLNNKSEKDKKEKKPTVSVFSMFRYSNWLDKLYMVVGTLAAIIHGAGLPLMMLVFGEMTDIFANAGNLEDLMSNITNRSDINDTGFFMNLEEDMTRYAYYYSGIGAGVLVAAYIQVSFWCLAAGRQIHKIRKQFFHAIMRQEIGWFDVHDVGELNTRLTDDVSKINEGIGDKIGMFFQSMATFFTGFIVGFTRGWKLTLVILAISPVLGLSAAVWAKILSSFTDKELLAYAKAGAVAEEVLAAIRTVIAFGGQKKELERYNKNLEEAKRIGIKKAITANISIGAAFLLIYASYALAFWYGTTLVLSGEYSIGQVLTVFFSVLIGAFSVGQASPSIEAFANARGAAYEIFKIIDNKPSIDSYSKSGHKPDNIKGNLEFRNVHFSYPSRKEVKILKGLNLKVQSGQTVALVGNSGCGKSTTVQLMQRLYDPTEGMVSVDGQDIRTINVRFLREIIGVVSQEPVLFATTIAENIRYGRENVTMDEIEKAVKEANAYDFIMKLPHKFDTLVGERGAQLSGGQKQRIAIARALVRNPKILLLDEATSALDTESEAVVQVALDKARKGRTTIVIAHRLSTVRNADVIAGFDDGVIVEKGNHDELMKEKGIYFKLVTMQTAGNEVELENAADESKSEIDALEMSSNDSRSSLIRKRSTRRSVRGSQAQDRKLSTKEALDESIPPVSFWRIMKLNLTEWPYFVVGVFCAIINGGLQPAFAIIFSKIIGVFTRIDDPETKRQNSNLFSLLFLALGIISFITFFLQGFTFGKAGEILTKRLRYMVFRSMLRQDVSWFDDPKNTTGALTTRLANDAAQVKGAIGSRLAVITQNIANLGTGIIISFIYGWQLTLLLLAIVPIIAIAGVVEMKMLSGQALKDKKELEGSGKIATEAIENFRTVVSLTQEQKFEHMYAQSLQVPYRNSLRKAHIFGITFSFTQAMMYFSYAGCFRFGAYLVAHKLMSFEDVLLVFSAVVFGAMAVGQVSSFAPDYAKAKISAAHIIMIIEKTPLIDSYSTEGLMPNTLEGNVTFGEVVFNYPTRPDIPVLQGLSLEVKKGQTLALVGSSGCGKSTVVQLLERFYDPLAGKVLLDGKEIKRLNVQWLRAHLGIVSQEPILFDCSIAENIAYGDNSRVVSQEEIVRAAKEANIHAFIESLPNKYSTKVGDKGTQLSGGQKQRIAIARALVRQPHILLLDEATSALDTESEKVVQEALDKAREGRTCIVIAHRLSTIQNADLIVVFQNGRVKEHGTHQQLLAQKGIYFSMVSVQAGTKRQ
T6 sequence (P30996 1-436 limits assumed): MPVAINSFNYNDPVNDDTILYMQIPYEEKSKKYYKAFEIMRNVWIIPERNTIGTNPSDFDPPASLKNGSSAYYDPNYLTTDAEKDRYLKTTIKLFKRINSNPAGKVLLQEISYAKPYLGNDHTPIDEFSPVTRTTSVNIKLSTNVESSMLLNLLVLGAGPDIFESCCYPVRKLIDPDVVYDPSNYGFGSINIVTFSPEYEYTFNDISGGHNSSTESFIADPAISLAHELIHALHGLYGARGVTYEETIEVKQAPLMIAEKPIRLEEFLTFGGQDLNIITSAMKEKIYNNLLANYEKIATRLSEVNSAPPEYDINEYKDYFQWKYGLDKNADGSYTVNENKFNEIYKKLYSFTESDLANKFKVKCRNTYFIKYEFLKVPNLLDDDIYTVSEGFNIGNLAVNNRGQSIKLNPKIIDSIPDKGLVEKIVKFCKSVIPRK
T5 sequence (Q38C91 whole entry): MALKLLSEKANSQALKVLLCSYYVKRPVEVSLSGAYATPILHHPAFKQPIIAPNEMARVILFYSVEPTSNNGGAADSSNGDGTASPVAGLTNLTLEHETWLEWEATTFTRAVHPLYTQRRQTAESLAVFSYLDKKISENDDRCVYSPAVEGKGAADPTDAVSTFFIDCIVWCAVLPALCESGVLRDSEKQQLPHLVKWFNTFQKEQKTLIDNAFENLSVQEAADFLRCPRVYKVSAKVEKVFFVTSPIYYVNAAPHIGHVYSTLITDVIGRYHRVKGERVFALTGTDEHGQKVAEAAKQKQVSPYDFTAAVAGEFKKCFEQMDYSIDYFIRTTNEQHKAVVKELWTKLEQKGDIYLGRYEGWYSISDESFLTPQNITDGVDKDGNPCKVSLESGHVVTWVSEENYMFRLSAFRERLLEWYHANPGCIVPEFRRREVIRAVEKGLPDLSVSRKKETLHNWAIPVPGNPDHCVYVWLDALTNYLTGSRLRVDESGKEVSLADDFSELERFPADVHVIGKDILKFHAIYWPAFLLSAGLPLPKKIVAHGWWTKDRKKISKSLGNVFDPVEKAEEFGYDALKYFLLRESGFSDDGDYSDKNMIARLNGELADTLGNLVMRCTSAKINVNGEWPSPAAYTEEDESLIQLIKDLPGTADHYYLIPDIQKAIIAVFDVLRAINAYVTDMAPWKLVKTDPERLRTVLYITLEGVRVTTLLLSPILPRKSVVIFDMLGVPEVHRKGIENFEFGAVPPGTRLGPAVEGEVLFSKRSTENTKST
Sequence of Palmitoyl-protein thioesterase ABHD10, mitochondrial (Q6PE15 whole entry): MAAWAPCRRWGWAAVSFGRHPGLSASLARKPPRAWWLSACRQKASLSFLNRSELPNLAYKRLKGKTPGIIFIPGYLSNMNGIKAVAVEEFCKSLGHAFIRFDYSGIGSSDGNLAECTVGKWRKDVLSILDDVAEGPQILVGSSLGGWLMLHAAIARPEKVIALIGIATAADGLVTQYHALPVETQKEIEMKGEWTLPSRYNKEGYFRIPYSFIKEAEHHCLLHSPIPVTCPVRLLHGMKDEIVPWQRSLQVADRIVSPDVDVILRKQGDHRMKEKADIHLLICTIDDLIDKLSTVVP
Sequence of Protein Wnt-3a (P27467 whole entry): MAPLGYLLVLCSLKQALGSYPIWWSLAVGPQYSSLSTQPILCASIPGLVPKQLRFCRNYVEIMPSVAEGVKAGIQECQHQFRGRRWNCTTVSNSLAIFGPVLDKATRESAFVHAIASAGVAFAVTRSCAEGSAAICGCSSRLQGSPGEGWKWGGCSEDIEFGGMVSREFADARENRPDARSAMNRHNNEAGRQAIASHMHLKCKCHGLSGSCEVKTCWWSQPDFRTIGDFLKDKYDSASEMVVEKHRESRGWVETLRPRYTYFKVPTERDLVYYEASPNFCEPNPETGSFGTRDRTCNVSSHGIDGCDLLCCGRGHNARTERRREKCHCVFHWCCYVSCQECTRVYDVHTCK
Sequence of Induced myeloid leukemia cell differentiation protein Mcl-1 (Q07820 whole entry): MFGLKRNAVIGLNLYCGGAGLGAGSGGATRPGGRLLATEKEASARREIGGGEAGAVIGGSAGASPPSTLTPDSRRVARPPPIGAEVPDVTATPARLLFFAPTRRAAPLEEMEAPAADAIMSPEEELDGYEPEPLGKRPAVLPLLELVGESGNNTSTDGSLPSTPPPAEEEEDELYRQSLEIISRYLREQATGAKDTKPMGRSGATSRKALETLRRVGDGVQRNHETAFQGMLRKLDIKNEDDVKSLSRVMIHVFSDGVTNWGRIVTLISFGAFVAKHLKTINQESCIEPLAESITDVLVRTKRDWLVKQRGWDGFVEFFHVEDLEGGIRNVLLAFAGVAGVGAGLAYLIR
Sequence of SWI/SNF-related matrix-associated actin-dependent regulator of chromatin subfamily A member 2 (P51531 whole entry): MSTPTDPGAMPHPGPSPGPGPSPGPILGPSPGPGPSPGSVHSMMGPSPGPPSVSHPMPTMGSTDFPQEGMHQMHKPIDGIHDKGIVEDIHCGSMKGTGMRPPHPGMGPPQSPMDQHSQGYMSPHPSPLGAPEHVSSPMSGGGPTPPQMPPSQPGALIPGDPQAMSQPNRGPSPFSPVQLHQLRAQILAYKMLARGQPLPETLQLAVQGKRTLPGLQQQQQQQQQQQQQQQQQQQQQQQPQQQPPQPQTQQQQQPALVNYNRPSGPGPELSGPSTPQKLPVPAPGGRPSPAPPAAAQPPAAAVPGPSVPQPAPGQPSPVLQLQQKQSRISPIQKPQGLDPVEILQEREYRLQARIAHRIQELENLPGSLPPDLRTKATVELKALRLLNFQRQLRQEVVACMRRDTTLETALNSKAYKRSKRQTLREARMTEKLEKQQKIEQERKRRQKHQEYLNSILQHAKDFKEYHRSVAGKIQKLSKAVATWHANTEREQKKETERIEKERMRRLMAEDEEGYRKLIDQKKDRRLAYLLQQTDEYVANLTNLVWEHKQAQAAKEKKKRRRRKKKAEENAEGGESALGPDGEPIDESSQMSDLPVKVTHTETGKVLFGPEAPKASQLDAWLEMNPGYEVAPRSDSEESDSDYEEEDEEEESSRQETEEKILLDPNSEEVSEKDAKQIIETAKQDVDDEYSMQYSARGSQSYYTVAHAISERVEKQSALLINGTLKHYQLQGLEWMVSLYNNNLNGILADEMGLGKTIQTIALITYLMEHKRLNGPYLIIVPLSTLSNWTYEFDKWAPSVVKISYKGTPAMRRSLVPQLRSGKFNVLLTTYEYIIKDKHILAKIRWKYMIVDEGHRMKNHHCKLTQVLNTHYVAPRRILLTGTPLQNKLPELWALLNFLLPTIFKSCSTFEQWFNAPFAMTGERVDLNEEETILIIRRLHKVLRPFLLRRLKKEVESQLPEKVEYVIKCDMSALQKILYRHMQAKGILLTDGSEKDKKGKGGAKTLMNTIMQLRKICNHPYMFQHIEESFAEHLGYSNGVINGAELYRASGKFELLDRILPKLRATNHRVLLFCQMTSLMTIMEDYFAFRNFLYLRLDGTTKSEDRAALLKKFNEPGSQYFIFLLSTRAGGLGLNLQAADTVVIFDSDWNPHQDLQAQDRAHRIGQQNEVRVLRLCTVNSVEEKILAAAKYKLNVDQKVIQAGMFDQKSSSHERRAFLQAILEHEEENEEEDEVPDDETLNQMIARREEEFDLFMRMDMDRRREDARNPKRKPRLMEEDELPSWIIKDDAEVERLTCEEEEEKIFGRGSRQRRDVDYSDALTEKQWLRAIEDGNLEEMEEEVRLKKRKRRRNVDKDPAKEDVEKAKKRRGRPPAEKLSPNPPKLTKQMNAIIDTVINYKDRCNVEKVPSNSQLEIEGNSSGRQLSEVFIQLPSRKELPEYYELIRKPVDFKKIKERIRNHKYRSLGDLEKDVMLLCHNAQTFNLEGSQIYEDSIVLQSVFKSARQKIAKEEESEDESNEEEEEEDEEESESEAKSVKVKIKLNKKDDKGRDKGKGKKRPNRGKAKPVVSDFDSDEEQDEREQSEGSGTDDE

CCOC(=O)N1C(=O)[C@@](CC)(c2ccccc2)N1C(=O)OCC
EC50 [1]: > 195 µM (not active)
IC50 [2]: 0.173 µM (active)
AC50 [3]: 12.5 µM (active)

CCc1cccc2c(C(=O)CN3C(=O)NC4(CCCCCC4)C3=O)c[nH]c12
EC50 [4]: > 91.2 µM (inactive)
IC50 (cells): > 67.6 µM (inactive)
EC50 [5]: > 91.2 µM (inactive)
AC50 [6]: 4.33 µM (active)
AC50 (HeLa): 99.7 µM (active)
IC50 [7]: > 67.6 µM (inactive)

COc1ccc(N2CCC(CNC(=O)Nc3ccc(Cl)cc3)C2)cc1 (stereo unspecified)
IC50 [8]: 38.4 µM (inactive)
IC50 [9]: 83.3 µM (inactive)
IC50 [10]: 27.3 µM (inactive)
IC50 [11]: > 54 µM (not active)

Cc1cccc(N(C(=O)Cn2nnc3ccccc32)C(C(=O)NC(C)(C)C)c2ccsc2)c1 (stereo unspecified)
AC50 (Vero): 31.3 µM (active)

O=C(Nc1cnc(O)nc1O)c1cc([N+](=O)[O-])cc([N+](=O)[O-])c1
EC50 [12]: 2.7 µM (active)
EC50 [13]: 3.9 µM (active)

COc1ccc(N2C(=O)[C@@H]3[C@H](C2=O)[C@H]2c4ccccc4C=CN2[C@@H]3C(=O)Nc2ccccc2)cc1
IC50 (Coagulation factor XII): > 50 µM (inactive)
IC50 (Caspase-3): 12.4 µM (active)
IC50 [14]: 16.7 µM (active)
IC50 [15]: 3.72 µM (active)

Cc1cccc(-c2nc3nc(C)cc(N4CCN(C(=O)c5ccco5)CC4)n3n2)c1
EC50 [16]: 14.6 µM (active)
EC50 [17]: 6 µM (active)

CCN(CC)c1cc(NC(=O)c2ccccc2F)ncn1
IC50 (Protein Wnt-3a): 0.172 µM (active)

C[C@H](CO)N1C[C@H](C)[C@H](CN(C)C(=O)Nc2ccccc2)OCCCC[C@H](C)Oc2ccc(NC(=O)C3CCCCC3)cc2C1=O
AC50 [18]: 3.87 µM (active)
AC50 [19]: 39.5 µM (active)

CN(C)CC#Cc1cccc(-c2nc(C(=O)NCc3ccc(Oc4ccccc4)cc3)cc3c2[C@H](CCO)N([S+]([O-])C(C)(C)C)C3)c1 (stereo partly specified)
AC50 [20]: 0.746 µM (active)
